Source: patent publication US9085550B2, “Ligands for estrogen related receptors and methods for synthesis of said ligands” (CITY OF HOPE, priority 2005, dated 2015)

How the values were obtained:
[1] = target: T1, HRHN-GAL (yeast GAL4 DNA binding domain without receptor sequences) (Saccharomyces cerevisiae, UniProt P04386); assay: GAL4 reporter transactivation assay in CV-1 cells, control vector without receptor; assay type: cell-based, monkey; conditions: for Fold activation, HRHN-GAL: reporter 0.42:vector 0.00875, no PGC-1a
T1 construct: expressed in transfected cells; host or cells: CV-1

human ERα = target: T2, human ERα (Homo sapiens, UniProt P03372); assay: ERE-TK-luc reporter transactivation assay in CV-1 cells, full-length hERa; assay type: cell-based
T2 construct: Human ERα and ERβ were examined as full-length proteins using an estrogen receptor responsive reporter construct; expressed in transfected cells; host or cells: CV-1
T2 sequence (P03372 1-595): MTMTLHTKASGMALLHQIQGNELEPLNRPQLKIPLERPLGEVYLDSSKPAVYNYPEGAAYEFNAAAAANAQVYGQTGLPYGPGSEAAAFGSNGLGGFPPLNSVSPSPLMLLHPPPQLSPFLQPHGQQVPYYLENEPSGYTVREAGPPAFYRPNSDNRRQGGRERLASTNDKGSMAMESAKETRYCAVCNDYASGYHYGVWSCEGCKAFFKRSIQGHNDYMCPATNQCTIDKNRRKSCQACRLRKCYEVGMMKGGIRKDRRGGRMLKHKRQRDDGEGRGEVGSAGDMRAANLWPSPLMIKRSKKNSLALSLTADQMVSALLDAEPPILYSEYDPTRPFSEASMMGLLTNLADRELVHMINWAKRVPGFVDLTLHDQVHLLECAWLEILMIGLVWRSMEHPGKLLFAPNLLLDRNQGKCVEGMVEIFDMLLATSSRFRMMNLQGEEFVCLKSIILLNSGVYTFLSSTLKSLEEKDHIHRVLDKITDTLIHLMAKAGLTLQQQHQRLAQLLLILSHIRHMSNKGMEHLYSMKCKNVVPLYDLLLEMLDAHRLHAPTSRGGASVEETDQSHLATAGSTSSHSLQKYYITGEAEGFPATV
Method: (§1) Human ERα and ERβ were examined as full-length proteins using an estrogen receptor responsive reporter construct.
(§2) Suitable reporter gene constructs are well known to skilled workers in the fields of biochemistry and molecular biology. […] Other vectors known in the art can be used in the methods of the present invention.
(§3) CV-1 cells for the activation assays were grown in Dulbecco's modified Eagle's medium supplemented with 10% resin charcoal-stripped fetal bovine serum, 50 U/ml penicillin G and 50 μg/ml streptomycin sulfate (DMEM-FBS) at 37° C. in 5% CO2. One day prior to transfection, cells were plated to 50-80% confluence using phenol red free DMEM-FBS.

[2] = target: T3, GAL-hERRa (human ERRα ligand binding domain fused to GAL4 DNA binding domain) (Homo sapiens, UniProt P11474); assay: GAL4 reporter transactivation assay in CV-1 cells, GAL-hERRa; assay type: cell-based; conditions: for Fold activation, GAL-hERRa + PGC-1a / Fold activation, GAL-hERRa: CV-1; for Fold activation, GAL-hERRa + PGC-1a: reporter 0.42:vector 0.00875:PGC-1a 0.035; for Fold activation, GAL-hERRa: reporter 0.42:vector 0.00875, no PGC-1a
T3 construct: expressed in transfected cells; host or cells: CV-1
T3 sequence (P11474 193-421 limits assumed): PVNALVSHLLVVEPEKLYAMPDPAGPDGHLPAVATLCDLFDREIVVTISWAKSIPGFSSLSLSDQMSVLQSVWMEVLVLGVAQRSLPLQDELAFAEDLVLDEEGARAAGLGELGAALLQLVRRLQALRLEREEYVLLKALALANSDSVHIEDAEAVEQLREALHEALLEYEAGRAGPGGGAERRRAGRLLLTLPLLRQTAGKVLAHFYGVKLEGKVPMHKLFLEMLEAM

human ERβ = target: T4, human ERβ (Homo sapiens, UniProt Q92731); assay: ERE-TK-luc reporter transactivation assay in CV-1 cells, full-length hERb; assay type: cell-based
T4 construct: Human ERα and ERβ were examined as full-length proteins using an estrogen receptor responsive reporter construct; expressed in transfected cells; host or cells: CV-1
Method: as §1, §2, §3

[3] = target: T5, GAL-L-hERRb (human ERRβ ligand binding domain fused to GAL4 DNA binding domain) (Homo sapiens, UniProt O95718); assay: GAL4 reporter transactivation assay in CV-1 cells, GAL-L-hERRb; assay type: cell-based; conditions: for Fold activation, GAL-L-hERRb + PGC-1a / Fold activation, GAL-L-hERRb: CV-1; for Fold activation, GAL-L-hERRb + PGC-1a: reporter 0.42:vector 0.00875:PGC-1a 0.035; for Fold activation, GAL-L-hERRb: reporter 0.42:vector 0.00875, no PGC-1a
T5 construct: expressed in transfected cells; host or cells: CV-1
T5 sequence (O95718 208-432 limits assumed): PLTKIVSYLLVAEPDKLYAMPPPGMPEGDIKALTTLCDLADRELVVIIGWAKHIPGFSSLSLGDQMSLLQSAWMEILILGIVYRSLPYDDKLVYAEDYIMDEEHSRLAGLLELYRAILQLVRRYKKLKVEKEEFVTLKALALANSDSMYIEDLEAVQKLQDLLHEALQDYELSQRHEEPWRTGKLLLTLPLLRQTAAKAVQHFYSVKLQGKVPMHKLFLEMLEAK

T1 sequence (P04386 1-147): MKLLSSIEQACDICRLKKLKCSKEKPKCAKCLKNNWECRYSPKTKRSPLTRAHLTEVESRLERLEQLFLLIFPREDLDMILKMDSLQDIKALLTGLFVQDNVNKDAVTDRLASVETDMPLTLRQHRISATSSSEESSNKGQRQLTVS
T4 sequence (Q92731 whole entry): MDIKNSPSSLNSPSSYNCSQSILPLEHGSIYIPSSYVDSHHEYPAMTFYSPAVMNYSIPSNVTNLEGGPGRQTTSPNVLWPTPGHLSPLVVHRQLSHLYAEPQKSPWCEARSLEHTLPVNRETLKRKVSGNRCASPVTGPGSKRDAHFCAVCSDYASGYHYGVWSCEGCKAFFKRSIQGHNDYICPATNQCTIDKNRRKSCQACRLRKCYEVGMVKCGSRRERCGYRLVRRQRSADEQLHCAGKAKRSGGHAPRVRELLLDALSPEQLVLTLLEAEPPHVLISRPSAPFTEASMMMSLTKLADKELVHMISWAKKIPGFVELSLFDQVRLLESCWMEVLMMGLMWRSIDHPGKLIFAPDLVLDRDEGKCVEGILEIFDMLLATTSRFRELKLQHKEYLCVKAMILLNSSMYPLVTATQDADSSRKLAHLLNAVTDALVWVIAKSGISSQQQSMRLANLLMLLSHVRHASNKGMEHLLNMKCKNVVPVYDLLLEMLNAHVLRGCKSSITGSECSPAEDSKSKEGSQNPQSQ

For `Cc1cccc(C=NNC(=O)c2ccc(O)cc2)c1` [DY159, 4-Hydroxy-benzoic acid (3-methyl-benzylidene)-hydrazide], the “Fold activation, HRHN-GAL” value ([1]; 1 μM) was 0.95 fold, the “Fold activation, HRHN-GAL” value ([1]; 3 μM (first 3 μM column)) was 1.08 fold and the “Fold activation, HRHN-GAL” value ([1]; 3 μM (second 3 μM column)) was 1.25 fold. The “Fold activation, HRHN-GAL” value ([1]; 10 μM) was 1.24 fold, the “Fold activation, HRHN-GAL” value ([1]; 30 μM) was 1.26 fold and the “Fold activation, HRHN-GAL + PGC-1a” value ([1]; reporter 0.42:vector 0.00875:PGC-1a 0.035, 1 μM) was 1.31 fold. For the same compound, the “Fold activation, HRHN-GAL + PGC-1a” value ([1]; reporter 0.42:vector 0.00875:PGC-1a 0.035, 3 μM (first 3 μM column)) was 1.05 fold, the “Fold activation, HRHN-GAL + PGC-1a” value ([1]; reporter 0.42:vector 0.00875:PGC-1a 0.035, 3 μM (second 3 μM column)) was 1.03 fold and the “Fold activation, HRHN-GAL + PGC-1a” value ([1]; reporter 0.42:vector 0.00875:PGC-1a 0.035, 10 μM) was 1.39 fold. The “Fold activation, HRHN-GAL + PGC-1a” value ([1]; reporter 0.42:vector 0.00875:PGC-1a 0.035, 30 μM) was 1.11 fold, the “Fold Activation, ERE-TK-luc, hERa” value (human ERα; Table 7, CV-1, drug conc 30 μM) was 1.59 fold and the “Activation of ERa” value (human ERα; specificity for ERRs) was “do not activate”. The “Fold activation, GAL-hERRa + PGC-1a” value ([2]; 1 μM) was 1.18 fold, the “Fold activation, GAL-hERRa + PGC-1a” value ([2]; 3 μM (first 3 μM column)) was 1.69 fold and the “Fold activation, GAL-hERRa + PGC-1a” value ([2]; 3 μM (second 3 μM column)) was 1.55 fold. For the same compound, the “Fold activation, GAL-hERRa + PGC-1a” value ([2]; 10 μM) was 2.02 fold, the “Fold activation, GAL-hERRa + PGC-1a” value ([2]; 30 μM) was 2.61 fold and the “Fold activation, GAL-hERRa” value ([2]; 1 μM) was 1.03 fold. For the same compound, the “Fold activation, GAL-hERRa” value ([2]; 3 μM (first 3 μM column)) was 1.41 fold, the “Fold activation, GAL-hERRa” value ([2]; 3 μM (second 3 μM column)) was 1.23 fold and the “Fold activation, GAL-hERRa” value ([2]; 10 μM) was 1.64 fold. For the same compound, the “Fold activation, GAL-hERRa” value ([2]; 30 μM) was 2.41 fold, the “Activation of ERRα” value ([2]; in the presence of PGC-1a) was “can activate” and the “Fold Activation, ERE-TK-luc, hERb” value (human ERβ; Table 7, CV-1, drug conc 30 μM) was 1.93 fold. The “Activation of ERb” value (human ERβ; specificity for ERRs) was “do not activate”, the “Fold activation, GAL-L-hERRb + PGC-1a” value ([3]; 1 μM) was 1.38 fold and the “Fold activation, GAL-L-hERRb + PGC-1a” value ([3]; 3 μM (first 3 μM column)) was 1.79 fold. The “Fold activation, GAL-L-hERRb + PGC-1a” value ([3]; 3 μM (second 3 μM column)) was 1.47 fold, the “Fold activation, GAL-L-hERRb + PGC-1a” value ([3]; 10 μM) was 1.89 fold and the “Fold activation, GAL-L-hERRb + PGC-1a” value ([3]; 30 μM) was 2.45 fold. For the same compound, the “Fold activation, GAL-L-hERRb” value ([3]; 1 μM) was 1.29 fold, the “Fold activation, GAL-L-hERRb” value ([3]; 3 μM (first 3 μM column)) was 1.25 fold and the “Fold activation, GAL-L-hERRb” value ([3]; 3 μM (second 3 μM column)) was 0.98 fold. The “Fold activation, GAL-L-hERRb” value ([3]; 10 μM) was 1.33 fold, the “Fold activation, GAL-L-hERRb” value ([3]; 30 μM) was 1.36 fold and the “Activation of ERRβ” value ([3]; in the presence of PGC-1a) was “can activate”.
